In patent US12480163B2, “Compositions and methods for identification assessment, prevention, and treatment of Ewing sarcoma using TP53 dependency biomarkers and modulators” (Dana-Farber Cancer Institute, Inc., priority 2018, dated 2025):
Entries after “also recorded” stand apart in the source; their conditions may differ.

Legend:
Wip1 = target: T1, Wip1 (Homo sapiens, UniProt O15297); test: Western immunoblotting of Wip1 and pSer15-p53; type: cell-based; conditions: TC32 and CHLA258 cells, 2 d
T1 construct: Whole-cell lysates were extracted in cell lysis buffer (Cell Signaling); endogenous in cells; host or cells: TP53 wild-type Ewing sarcoma cell lines
T1 sequence (O15297 1-605): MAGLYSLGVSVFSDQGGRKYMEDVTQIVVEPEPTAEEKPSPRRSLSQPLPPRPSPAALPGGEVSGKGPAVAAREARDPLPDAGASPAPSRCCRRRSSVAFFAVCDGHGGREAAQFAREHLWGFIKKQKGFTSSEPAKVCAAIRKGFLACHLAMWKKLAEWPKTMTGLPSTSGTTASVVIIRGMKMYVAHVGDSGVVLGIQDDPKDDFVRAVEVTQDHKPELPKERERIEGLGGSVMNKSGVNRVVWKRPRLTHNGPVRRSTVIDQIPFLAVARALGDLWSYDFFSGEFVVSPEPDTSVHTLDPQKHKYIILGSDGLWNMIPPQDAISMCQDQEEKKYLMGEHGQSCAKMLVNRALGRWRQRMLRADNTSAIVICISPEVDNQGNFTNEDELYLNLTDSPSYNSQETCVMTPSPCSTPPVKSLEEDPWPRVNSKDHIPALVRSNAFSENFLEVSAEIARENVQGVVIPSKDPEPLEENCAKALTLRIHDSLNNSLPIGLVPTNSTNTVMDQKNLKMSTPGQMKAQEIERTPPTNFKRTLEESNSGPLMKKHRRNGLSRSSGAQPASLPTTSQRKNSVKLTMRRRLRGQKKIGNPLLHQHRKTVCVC
Method: (§1) Whole-cell lysates were extracted in cell lysis buffer (Cell Signaling) supplemented with EDTA-free protease inhibitors and PhosSTOP™ phosphatase inhibitors (Roche). Western immunoblotting was performed using standard techniques. Primary antibodies used included anti-MDM2 (ab178938; Abcam), anti-MDM2 (86934; Cell Signaling), anti-MDM4 (A300-287A; Bethyl Laboratories), anti-p53 (2527S; Cell Signaling), anti-p21 (2946S; Cell Signaling), anti-Vinculin (18058; Abcam), anti-Wip1 (A300-664A; Bethyl Laboratories), anti-pSer15-p53 (9284; Cell Signaling), anti-USP7 (A300-033A; Bethyl Laboratories), and anti-Tubulin (cp06; CalBiochem).

[1] = tested on: TC32 xenograft tumor tissues; test: Pharmacodynamics study in TC32 xenograft tumor tissue (Western blot, quantitative PCR); type: in vivo, mice; conditions: three doses 30 mg/kg IV q.o.d., 8 h after last dose
Method: as §1
RNA was extracted from cells with the RNeasy® kit and on-column DNA digestion (Qiagen). cDNA was prepared using M-MLV reverse transcription (ThermoFisher Scientific). TaqMan™ Gene Expression Master Mix (Applied Biosystems) was used per the manufacturer's protocol. TaqMan™ probes included RPL13A (Hs04194366_g1; ThermoFisher Scientific), CDKNIA (Hs00355782_m1; Thermo Fisher Scientific), and MDM2 (Hs01066930_m1; ThermoFisher Scientific). Data were collected in triplicate and analyzed using the ΔΔCT method.
For pharmacodynamics studies, tumor xenografts were established in six nude female mice by implanting three million TC32 cells or PDX tumor fragments into the right flank. Animals were randomized to either ATSP-7041 (n=3) or vehicle treatment (n=3). […]

What does the source list for CC(=O)N[C@@H](CC(C)C)C(=O)N[C@H](C(=O)N[C@@H](Cc1ccccc1)C(=O)N[C@]1(C)CCCCCCC=CCCC[C@@](C)(C(=O)N[C@@H](CO)C(=O)N[C@@H](C)C(=O)N[C@@H](C)C(N)=O)NC(=O)[C@H](CC2CCC2)NC(=O)[C@H](CCC(N)=O)NC(=O)[C@H](C)NC(=O)[C@H](Cc2c[nH]c3ccccc23)NC(=O)[C@H](Cc2ccc(O)cc2)NC(=O)[C@H](CCC(=O)O)NC1=O)[C@@H](C)O [ATSP-7041, Ac-Leu17-Thr-Phe-cyclo(R8-Glu-Tyr-Trp-Ala-Gln-Cba-S5)-Ser-Ala-Ala30-NH2]?
phosphorylation of p53 at Serine 15, combination of ATSP-7041 and GSK2830371 (Wip1): increased phospho-Serine15-p53 protein levels; also recorded: increased the phosphorylation of p53 at Serine 15; also recorded: increases the level of pSer15 on p53 more than with either molecule alone; MDM2, p53, and p21 protein levels in tumor tissue [1]: increase of MDM2, p53, and p21 protein levels; also recorded: increase in MDM2, p53, and p21 protein levels; MDM2 and p21 mRNA levels in tumor tissue ([1]; quantitative PCR): increase of MDM2 mRNA levels; also recorded: increase of p21 mRNA levels
